Source: patent US10487054B2, “Therapeutic compounds” (REGENTS OF THE UNIVERSITY OF MINNESOTA, priority 2017, dated 2019)

How the values were obtained:
TOPK = target: T1, TOPK (Homo sapiens, UniProt Q96KB5); experiment: Pull-down assay with HaCaT cell lysates; type: binding; conditions: HaCaT cell lysates 500 μg, Western blot
T1 construct: endogenous in cells; host or cells: HaCaT
T1 sequence (Q96KB5 1-322): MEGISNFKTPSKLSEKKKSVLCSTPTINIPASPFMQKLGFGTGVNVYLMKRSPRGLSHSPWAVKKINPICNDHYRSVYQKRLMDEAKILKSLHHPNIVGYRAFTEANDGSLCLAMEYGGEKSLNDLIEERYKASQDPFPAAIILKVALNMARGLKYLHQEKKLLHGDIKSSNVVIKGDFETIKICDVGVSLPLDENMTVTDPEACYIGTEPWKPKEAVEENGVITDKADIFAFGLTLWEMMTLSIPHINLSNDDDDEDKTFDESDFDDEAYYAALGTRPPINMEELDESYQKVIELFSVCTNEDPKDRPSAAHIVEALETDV
Method: (§1) Active TOPK (200 ng) was incubated with different concentrations of ATP (0, 10 or 100 μM) and then mixed with compound 1-conjugated Sepharose 4B beads or Sepharose 4B beads. Proteins were pulled down and analyzed by Western blot. Data are representative of 3 independent experiments that gave similar results. FIGS. 2C and 2D show compound 1 binds to either TOPK (2C) or MEK1/2 (2D) ex vivo. Lysates from HaCaT cells (500 μg) were incubated with compound 1-conjugated Sepharose 4B beads or Sepharose 4B beads alone and the pulled-down proteins were analyzed by Western blot. Data are representative of 3 independent experiments that gave similar results. FIGS. 2E and 2F show compound 1 inhibits TOPK kinase (2E) activity but not MEK1 kinase (2F) activity in vitro. Active TOPK (200 ng) was mixed with compound 1 (0, 0.5, 1, 3, or 5 μM) or HI-032 (TOPK inhibitor, 10 μM) and then incubated with a [γ-^32P] ATP mixture. Similarly, MEK1 (200 ng) was mixed with compound 1 (0, 0.5, 1, 3, 5, or 10 μM) or PD098059 (MEK1 inhibitor, 5 μM) and then incubated with a [γ-^32P] ATP mixture. For 2E and 2F, the results are visualized by autoradiography and Coomassie blue staining serves as a loading control. Data are representative of 3 independent experiments that gave similar results. […]

SCC12 cells = experiment: Crystal violet staining cell proliferation assay; type: cell-based, human; conditions: dose-dependent, several days
Method: (§2) Cells were exposed to EGF (10 ng/ml) and treated with increasing concentrations of compound 1. Representative photographs are shown and data are presented as mean values±S.D. from triplicate experiments. […] Cells were treated with different concentrations of compound 1 for several days and cell proliferation was determined by a crystal violet staining assay.
(§3) Cell proliferation was determined by a crystal violet staining assay. Cells (3×10^4/well) were seeded into 24-well plates. After an overnight incubation, cells were treated with different concentrations of compound 1 and incubated for several days. Then, each well was washed 3 times with phosphate buffered saline (PBS) and stained with 0.2% (w/v) crystal violet in 2% (v/v) ethanol. After 10 min, cells were washed 3 times with distilled water, and the remaining dye was dissolved in 0.5% (w/v) sodium dodecyl sulfate in 50% (v/v) ethanol. Absorbance was measured at an optical density of 540 nm using the Thermo Multiskan plate-reader (Thermo Fisher Scientific).

A431 cells = experiment: Crystal violet staining cell proliferation assay; type: cell-based, human; conditions: dose-dependent, several days
Method: as §2, §3

MEK1/2 = experiment: Pull-down assay with HaCaT cell lysates; type: binding, human; conditions: HaCaT cell lysates 500 μg, Western blot
Method: as §1

O=C1Nc2ccc(C34CC5CC(CC(C5)C3)C4)cc2C1=NO [compound 1, 5-(adamantan-1-yl)-3-(hydroxyimino)indolin-2-one]
binding of TOPK to compound-conjugated beads (TOPK): detected in the compound 1-conjugated beads group but not in the beads only group | cell proliferation (SCC12 cells): strongly decreased | cell proliferation (A431 cells): strongly decreased | binding of MEK1/2 to compound-conjugated beads (MEK1/2): detected in the compound 1-conjugated beads group but not in the beads only group
